We go through 6 compounds from patent publication US5192774A, “Substituted acetamide derivatives, process for their preparation and antiulcer drug containing same” (Zeria Pharmaceutical Co., Ltd., priority 1988, dated 1993).

For data set [1], the system named is gastric acid secretion (histamine-stimulated). The data set is described as follows: Effects on Gastric Acid Secretion of Anesthesia Fistula Rat by Histamine. The format is in vivo, rat (male SD). To be noted: 30 mg/kg, histamine infusion, acid output 1 to 4 hours after administration. How it is done: The aggressive factor inhibition action was evaluated from the effects on the gastric acid secretion of anesthesia fistula rats by histamine, while the protective factor potentiation action was evaluated from the effects observed in a hydrochloric acid-ethanol ulcer model. In the Tables, the column of test compounds indicates Example numbers where the compounds are prepared. Male SD rats (Japan Charles River Co., Ltd.) each weighing 180 to 200 g were fasted for 24 hours before celiotomy with etherrization. A feeding tube (fr. 3.5) for injecting test medicines was inserted into the duodenum, and the pylorus was ligatured. A polyethylene tube (inner diameter: 7 mm) was used in the anterior stomach and gastric fistula was performed. After washing the inside of the stomach with heated physiological salt solution (37° C.) several times, the body was closed. A tube with a fin was inserted into the caudal vein and was fastened with a tape and it was connected to a infusion pump (Harvard). The rats were enclosed in a KN Ballman II cage (Natsume Seisakusho). Gastric juice flowed from the fistula was collected with a […] one hour. Starting form one hour after the operation, histamine was continuously injected at a rate of 1.4 ml/hour through the caudal vein. Then, test compounds suspended in 0.5% sodium caboxy methyl cellulose (Na-CMC) were administered one hour after the start of the histamine injection. The gastric juice thus extracted in a period from one hour after the administration of the chemical to four hours after that was titrated by using an automatic titration aparatus (Kyoto Electronic) with 0.1N NaOH to adjust pH 7, and the quantity of the gastric juice was measured to obtain the total acid output. […] [formula]

For data set [2], the system named is ulcer formation caused by hydrochloric acid-ethanol. The data set is described as follows: Hydrochloric Acid-Ethanol Ulcer Test. To be noted: 100 mg/kg, oral, 30 minutes before hydrochloric acid-ethanol; rat. The format is in vivo, rat (male SD). Here is the method: The aggressive factor inhibition action was evaluated from the effects on the gastric acid secretion of anesthesia fistula rats by histamine, while the protective factor potentiation action was evaluated from the effects observed in a hydrochloric acid-ethanol ulcer model. In the Tables, the column of test compounds indicates Example numbers where the compounds are prepared.
Male SD rats each weighing 170 to 190 g were fasted for 24 hours, and 1 ml of 150 mM hydrochloric acid-60% ethanol was orally administered to each rat. After one hour, rats were clubbed to death, and the stomach was extracted. 10 ml of 2% formalin solution was applied to the stomach for fixing for 10 minutes. The length (mm) of the injuries in the tunica mucosa taken place in the glandular stomach was measured under a stereoscopic microscope. The total length of the injuries of the individual was taken as the ulcer index.
Test compounds or control (1% Na-CMC) were orally administered in an amount of 0.5 ml/100 g, 30 minutes before the administration of hydrochloric acid-ethanol.

The subject of data set [3] is ICR:Crj 5 week old male mice. The experiment in a line: Toxicity test, repeated oral administration for 14 days. The format is in vivo, mouse (ICR:Crj. To be noted: 500 mg/kg/day. How it is done: (§1) The compounds according to Examples 2, 7, 8 and 12 were respectively suspended in 3% gum arabic solution and continuously, forcedly and orally administrated to three ICR:Crj 5 week old male mice for 14 days at a dose of 500 mg/kg/day.

Data set [4] in a line: Acute toxicity test by oral administration. The format is in vivo. How it is done: as §1

SMILES strings stand for the structures.

For `CN/C(=N/CCSCc1nc[nH]c1C)NC#N` [Cimetidine, reference compound], the “Gastric acid secretion inhibition effect (%)” value in data set [1] is reported as 32.3%. For the same compound, the “Ulcer Inhibition Rate(%)” value in data set [2] is recorded as 22.7%.
As usually defined, the LD50 is the dose at which mortality reaches 50%. A lower LD50 goes with a more toxic substance. Turning to `O=C(CSCCO)NCCCOc1cccc(CN2CCCCC2)c1` [Example 2, N-[3-[3-(piperidinomethyl)phenoxy]propyl]-2-(2-hydroxyethyl-1-thio)acetamide], the “Gastric acid secretion inhibition effect (%)” value in data set [1] came out at 79.5%. In addition, in data set [2], the “Ulcer Inhibition Rate(%)” value was found to be 72.5%. Besides, in data set [3], the death entry is recorded as “No rat died”. In data set [4] (mouse, in vivo, po), this compound had an LD50 of 2380 mg/kg.
`O=C(CS(=O)(=O)CCO)NCCCOc1cccc(CN2CCCCC2)c1` [Example 7, N-[3-[3-(piperidinomethyl)phenoxy]propyl]-2-(2-hydroxyethylsulfonyl)acetamide]: in data set [1], the “Gastric acid secretion inhibition effect (%)” value is given as 59.4%. Besides, the death result in data set [3] is reported as “No rat died”.
For `O=C(CSCCO)NCCCOc1cccc(CN2CCCC2)c1` [Example 8, N-[3-[3-(1-pyrrolidinylmethyl)phenoxy]propyl]-2-(2-hydroxyethyl-1-thio)acetamide], in that order: 70.9% and “No rat died”.
On the same counts, the results for `CC(=O)OCCSCC(=O)NCCCOc1cccc(CN2CCCC2)c1` [Example 12, N-[3-[3-(1-pirrolidinylmethyl)phenoxy]propyl]-2-(2-acetoxyethyl-1-thio)acetamide] are 55.4% and “No rat died”.
Consider `O=C(CO)NCCCOc1cccc(CN2CCCCC2)c1` [Roxatidine, reference compound], for which the “Gastric acid secretion inhibition effect (%)” value in data set [1] is 68.8%. In data set [2], the “Ulcer Inhibition Rate(%)” value is recorded as 69.4%. The same compound returned an LD50 value in data set [4] (acute, oral administration) of 755 mg/kg.
